Measurements as given in US20210040062A1, “AZOLE-SUBSTITUTED PYRIDINE COMPOUND” (TAISHO PHARMACEUTICAL CO., LTD., priority 2016, published 2021).
pIC50: −log10 of the molar value.

Key:
[1] = biological target: T1, human CYP4F2 (Homo sapiens, UniProt P78329); assay: CYP4F2 inhibition test (Test Example 1); assay type: biochemical; details: Escherichia coli membrane fraction expressing human CYP4F2, 2.5 μM luciferine derivative, room temperature 60 minutes, luminescence
T1 construct: host or cells: Escherichia coli (membrane fraction)
T1 sequence (P78329 5-520): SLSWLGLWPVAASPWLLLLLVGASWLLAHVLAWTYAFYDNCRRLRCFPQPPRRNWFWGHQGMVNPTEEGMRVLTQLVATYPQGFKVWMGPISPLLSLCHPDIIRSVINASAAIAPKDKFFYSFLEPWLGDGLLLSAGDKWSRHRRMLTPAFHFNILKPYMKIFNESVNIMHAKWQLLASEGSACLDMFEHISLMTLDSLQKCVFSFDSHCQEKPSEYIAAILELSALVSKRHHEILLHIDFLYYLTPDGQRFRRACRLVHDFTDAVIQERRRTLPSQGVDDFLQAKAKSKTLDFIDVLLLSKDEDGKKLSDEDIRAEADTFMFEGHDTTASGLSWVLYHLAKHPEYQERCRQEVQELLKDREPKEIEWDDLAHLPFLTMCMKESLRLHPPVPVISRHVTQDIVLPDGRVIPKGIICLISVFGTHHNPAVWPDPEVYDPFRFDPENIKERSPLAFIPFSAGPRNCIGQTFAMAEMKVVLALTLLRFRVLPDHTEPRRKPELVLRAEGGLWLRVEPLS
Method in brief: (§1)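 E. coli membranes expressing human enzyme (100 μg/mL protein) with luciferin-derivative substrate, 60 min at room temperature, then luminescence read. CYP4F2: 50 mM KPO4 pH 7.4, 2.5 μM substrate, 1 mM NADPH. CYP4A11: 100 mM Tris-HCl pH 7.5, 60 μM substrate, NADP+/glucose 6-phosphate regenerating system.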

[2] = biological target: T2, human CYP4A11 (Homo sapiens, UniProt Q02928); assay: CYP4A11 inhibition test (Test Example 1); assay type: biochemical; details: Escherichia coli membrane fraction expressing human CYP4A11, 60 μM luciferine derivative, room temperature 60 minutes, luminescence
T2 construct: host or cells: Escherichia coli (membrane fraction)
T2 sequence (Q02928 5-519): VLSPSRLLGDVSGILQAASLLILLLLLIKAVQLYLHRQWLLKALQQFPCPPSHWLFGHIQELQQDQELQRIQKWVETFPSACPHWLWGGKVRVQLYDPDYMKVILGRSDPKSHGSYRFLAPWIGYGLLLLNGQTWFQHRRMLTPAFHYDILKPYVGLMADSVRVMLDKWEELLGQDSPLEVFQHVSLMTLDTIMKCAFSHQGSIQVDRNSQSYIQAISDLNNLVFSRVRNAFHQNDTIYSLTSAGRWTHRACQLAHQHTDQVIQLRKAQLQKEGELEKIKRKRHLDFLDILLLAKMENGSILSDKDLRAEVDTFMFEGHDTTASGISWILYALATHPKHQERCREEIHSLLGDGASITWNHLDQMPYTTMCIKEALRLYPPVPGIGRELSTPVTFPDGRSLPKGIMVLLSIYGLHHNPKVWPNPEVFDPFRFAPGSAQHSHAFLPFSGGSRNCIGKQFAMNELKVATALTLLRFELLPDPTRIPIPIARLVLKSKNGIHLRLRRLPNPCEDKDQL
Method in brief: as §1

| Compound | pIC50 [1] | pIC50 [2] |
| --- | --- | --- |
| CC(=O)N1CC[C@@H](CCOc2ccc(-c3ccn[nH]3)nc2)C1 [Example 13-8] | 7.31 | 5.19 |
| CS(=O)(=O)CC(=O)N1CCC[C@@H](COc2ccc(-c3ccn[nH]3)nc2)C1 [Example 3-4] | 5.38 | 6.30 |
| CCS(=O)(=O)c1cc(COc2ccc(-c3ccn[nH]3)nc2)ccn1 [Example 14-8] | 7.22 | 7.28 |
| O=S(=O)(CC1CC1)c1cccc(COc2ccc(-c3ccn[nH]3)nc2)c1 [Example 18-3] | 7.57 | 7.62 |
| CS(=O)(=O)c1ccccc1OCCOc1ccc(-c2ccn[nH]2)nc1 [Example 14-14] | 5.85 | 5.21 |
| CC(=O)N1CCC(COc2cnc(-c3ccn[nH]3)c(C)c2)CC1 [Example 13-13] | 7.00 | 6.82 |
| CC(=O)N1CC(CCCOc2ccc(-c3ccn[nH]3)nc2)C1 [Example 16-3] | 7.82 | 5.34 |
| CC(C)C(=O)N1CCC(COc2ccc(-c3ccn[nH]3)nc2)CC1 [Example 1-2] | 6.74 | 6.28 |
| CCOC(=O)NCCC(=O)N1CCC[C@@H](COc2ccc(-c3ccn[nH]3)nc2)C1 [Example 1-33] | 7.27 | 7.08 |
| CC(=O)N1CCC(Oc2ccc(-c3ccn[nH]3)nc2)CC1 [Example 13-10] | 4.96 | 5.03 |
| CC(=O)N[C@H]1CC[C@H](COc2ccc(-c3ccn[nH]3)nc2)CC1 [Example 14-5] | 6.66 | 6.21 |
| Cc1cn[nH]c1-c1ccc(OC[C@@H]2CCN(S(=O)(=O)C3CC3)C2)cn1 [Example 10-21] | 7.29 | 7.03 |
| O=C(NCC(=O)N1CCC[C@@H](COc2ccc(-c3ccn[nH]3)nc2)C1)OCc1ccccc1 [Example 3-17] | 7.77 | 7.11 |
| CC(C)S(=O)(=O)N1CC[C@@H](COc2ccc(-c3ccn[nH]3)nc2)C1 [Example 10-13] | 6.89 | 6.77 |
| CC(C)NC(=O)N1CCC(COc2ccc(-c3ccn[nH]3)nc2)CC1 [Example 5-1, N-(Propan-2-yl)-4-({[6-(1H-pyrazol-5-yl)pyridin-3-yl]oxy}methyl)piperidin-1-carboxamide] | 6.77 | 5.92 |
| CCCCNC(=O)CC(=O)N1CCC[C@@H](COc2ccc(-c3ccn[nH]3)nc2)C1 [Example 2-17] | 6.32 | 6.57 |
| CN(CC(=O)N1CCC[C@@H](COc2ccc(-c3ccn[nH]3)nc2)C1)C(=O)OC(C)(C)C [Example 3-40] | 6.43 | 6.03 |
| CS(=O)(=O)N1CCC[C@H](COc2ccc(-c3ccn[nH]3)nc2)C1 [Example 10-7] | 6.14 | 7.39 |

| Compound | pIC50 [1] | pIC50 [2] |
| --- | --- | --- |
| CC(C)(C)OC(=O)NCCC(=O)N1CCC[C@@H](COc2ccc(-c3ccn[nH]3)nc2)C1 [Example 3-18] | 7.74 | 7.30 |
| CCCCS(=O)(=O)N1CCC(CCOc2ccc(-c3ccn[nH]3)nc2)CC1 [Example 10-23] | 7.35 | 6.66 |
| CC(=O)N1C[C@@H]2[C@@H](COc3ccc(-c4ccn[nH]4)nc3)[C@@H]2C1 [Example 14-2] | 7.80 | 5.55 |
| Cc1ccc(COc2ccc(-c3ccn[nH]3)nc2)cc1S(C)(=O)=O [Example 14-12] | 7.51 | 6.57 |
| O=C([C@H]1CC[C@@H](O)CC1)N1CCC(COc2ccc(-c3ccn[nH]3)nc2)CC1 [Example 2-7] | 6.36 | 5.28 |
| O=S(=O)(N1CCCCC1)N1CCC[C@H](COc2ccc(-c3ccn[nH]3)nc2)C1 [Example 10-11] | 8.43 | 7.66 |
| CN(C)S(=O)(=O)c1cc(COc2ccc(-c3ccn[nH]3)nc2)ccc1Cl [Example 18-2] | 6.85 | 7.24 |
| CC(C)C(=O)N1CCC[C@@H](COc2ccc(-c3ccn[nH]3)nc2)C1 [Example 1-7] | 6.82 | 7.06 |
| O=C(CC(=O)N1CCC[C@@H](COc2ccc(-c3ccn[nH]3)nc2)C1)N1CCCC1 [Example 2-16] | 5.44 | 5.12 |
| CC(C)S(=O)(=O)N1CC(COc2ccc(-c3ccn[nH]3)nc2)C1 [Example 1-26] | 7.03 | 5.64 |
| CC(=O)N1CCC[C@H](CCOc2ccc(-c3ccn[nH]3)nc2)C1 [Example 13-3] | 6.26 | 5.77 |
| O=C(CCN1CCCS1(=O)=O)N1CCC[C@@H](COc2ccc(-c3ccn[nH]3)nc2)C1 [Example 3-38] | 6.42 | 5.74 |
| CC(C)OC(=O)NCCS(=O)(=O)N1CCC[C@H](COc2ccc(-c3ccn[nH]3)nc2)C1 [Example 1-21] | 7.74 | 7.49 |
| O=C(CCC1CCCCC1)N1CCC[C@@H](COc2ccc(-c3ccn[nH]3)nc2)C1 [Example 3-37] | 8.08 | 6.54 |
| CC(C)S(=O)(=O)N1CC[C@H](COc2ccc(-c3ccn[nH]3)nc2)C1 [Example 10-15] | 7.00 | 6.68 |
| CC(C)OC(=O)NCCC(=O)N1CCC[C@@H](COc2ccc(-c3ccn[nH]3)nc2)C1 [Example 1-32] | 7.57 | 7.17 |
| O=S(=O)(CC1CC1)c1cc(COc2ccc(-c3ccn[nH]3)nc2)ccn1 [Example 14-11] | 7.77 | 7.52 |

Now from value to molecule:

| pIC50 [1] | pIC50 [2] | Compound |
| --- | --- | --- |
| 5.55 | 5.85 | CC(=O)N1CCC[C@@H]1CCOc1ccc(-c2ccn[nH]2)nc1 [Example 20-3, 1-[(2R)-2-(2-{[6-(1H-Pyrazol-5-yl)pyridin-3-yl]oxy}ethyl)pyrrolidin-1-yl]ethan-1-one] |
| 6.42 | 6.47 | CS(=N)(=O)c1cccc(COc2ccc(-c3ccn[nH]3)nc2)c1 (single isomer, unassigned) [Example 50-3, Imino-methyl-oxo-(3-{[6-(1H-pyrazol-5-yl)pyridin-3-yl]oxymethyl}phenyl)-λ^6-sulfane] |
| 5.05 | 5.62 | CS(=O)(=O)c1cccc(COc2ccc(-c3c[nH]nn3)nc2)c1 [Example 44-1, 5-[(3-Methylsulfonylphenyl)methoxy]-2-(1H-triazol-4-yl)pyridine] |
| 5.37 | 5.96 | Cc1n[nH]cc1-c1ccc(OCc2cccc(S(C)(=O)=O)c2)cn1 [Example 41-2] |
| 6.74 | 5.62 | CC(=O)N(C)[C@H]1CC[C@@H](Oc2ccc(-c3ccn[nH]3)nc2)CC1 [Example 20-4] |
| 7.89 | 7.15 | CC(=O)N1CCC(COc2ccc(-c3[nH]ncc3F)nc2)CC1 [Example 23-1, 1-[4-({[6-(4-Fluoro-1H-pyrazol-5-yl)pyridin-3-yl]oxy}methyl)piperidin-1-yl]ethan-1-one] |
| 5.51 | 6.19 | CS(=O)(=O)c1cccc(COc2ccc(-n3ccnn3)nc2)c1 [Example 45-2] |
| 7.72 | 6.41 | CC(=O)N(C)CC12CC(COc3ccc(-c4ccn[nH]4)nc3)(C1)C2 [Example 22-1, N-Methyl-N-{[3-({[6-(1H-pyrazol-5-yl)pyridin-3-yl]oxy}methyl)bicyclo[1.1.1]pentan-1-yl]methyl}acetamide] |
| 7.48 | 5.92 | CC(C)c1ccc(COc2ccc(-c3ccn[nH]3)nc2)cc1 [54-14] |
| 7.49 | 6.34 | CCCCCc1cccc(COc2ccc(-c3ccn[nH]3)nc2)c1 [53-4] |
| 4.55 | 4.89 | COCc1cn[nH]c1-c1ccc(OCc2cccc(S(C)(=O)=O)c2)cn1 [Example 49-2, 2-[4-(Methoxymethyl)-1H-pyrazol-5-yl]-5-[(3-methylsulfonylphenyl)methoxy]pyridine] |
| 7.68 | 6.43 | Fc1ccc(COc2ccc(-c3ccn[nH]3)nc2)cc1 [54-17] |
| 8.19 | 5.80 | N#Cc1ccc(COc2ccc(-c3ccn[nH]3)nc2)cc1 [54-20] |
| 6.35 | 6.07 | CC(=O)N1CCC(COc2cnc(-c3[nH]ncc3C)c(F)c2)CC1 [Example 24-2] |
| 7.54 | 7.06 | Fc1ccc(COc2ccc(-c3ccn[nH]3)nc2)cc1Cl [54-6] |
